Key:
PDE4 = experiment: Selectivity: inhibition of PDE4, radioenzymatic phosphodiesterase assay; assay type: biochemical, bovine; conditions: 10 μM test compound; vascular smooth muscle
Experimental: (§1) A 3 g segment of bovine aortic media cut into pieces with scissors was homogenized with an ultra-turrax then a potter glass/glass homogenizer in 7 volumes by weight of buffer A containing a protease inhibitor cocktail (20 mM Tris-HCl, 0.25 M saccharose, 2 mM magnesium acetate, 1 mM dithiothreitol, 5 mM EGTA, 2000 U/ml aprotinin, 10 mg/l leupeptin and 10 mg/l soya trypsic inhibitor). The homogenizate was centrifuged at 105,000 g for 1 hour. The supernatant was loaded on a DEAE-Sephacel column (15 x 1.6 cm) pre-equilibrated with buffer B (buffer A without the saccharose, EGTA and protease inhibitors). The column was washed until there was no detectable absorption at 280 nm, then eluted with a linear gradient of NaCl (0-0.5 M) in buffer B. 3-ml fractions were collected and enzyme activity was determined under the conditions described hereinbelow to localize the different enzymes PDE1, PDE3, PDE4 and PDE5 which were aliquoted and frozen at −80° C. (Lugnier et al., Biochem. Phamacol., 1986, 35: 1746-1751). PDE2 was prepared from bovine endothelial cells by the same methods (Lugnier and Schini, Biochem. Pharmacol., 1990, 39: 75-84).
(§2) Cyclic nucleotide phosphodiesterase activity was determined by a radioenzymatic method using tritium-labelled cyclic GMP or AMP (1 μM) as substrate (Lugnier et al., 1986). ^3H-labelled adenosine or guanosine monophosphate formed by hydrolysis of the radiolabelled cyclic nucleotide was then converted to ^3H-labelled adenosine or guanosine in a second reaction with […] in excess. The nucleoside formed was separated from the nucleotides by anion exchange chromatography. Nucleoside radioactivity was determined by liquid scintillation counting. Enzymatic incubations were carried out under conditions allowing no more than 15% hydrolysis of the substrate; each point was performed in duplicate.
(§3) The activity of the compounds was evaluated on other phosphodiesterase isoforms, particularly basal state or calmodulin-activated PDEl from vascular smooth muscle, PDE3, PDE4 and PDE5 from vascular smooth muscle.
(§4) The results obtained are presented in Tables 1 and 2 hereinbelow and are expressed as the percentage inhibition of enzymatic activity produced by […] of the test compound.

PDE3 = target: T1, PDE3 (Bos taurus, UniProt A0A3Q1M1E8); experiment: Selectivity: inhibition of PDE3, radioenzymatic phosphodiesterase assay; assay type: biochemical, bovine; conditions: 10 μM test compound; vascular smooth muscle; read-out: PDE3 percentage inhibition at 10 μM
T1 sequence (A0A3Q1M1E8 1-1126): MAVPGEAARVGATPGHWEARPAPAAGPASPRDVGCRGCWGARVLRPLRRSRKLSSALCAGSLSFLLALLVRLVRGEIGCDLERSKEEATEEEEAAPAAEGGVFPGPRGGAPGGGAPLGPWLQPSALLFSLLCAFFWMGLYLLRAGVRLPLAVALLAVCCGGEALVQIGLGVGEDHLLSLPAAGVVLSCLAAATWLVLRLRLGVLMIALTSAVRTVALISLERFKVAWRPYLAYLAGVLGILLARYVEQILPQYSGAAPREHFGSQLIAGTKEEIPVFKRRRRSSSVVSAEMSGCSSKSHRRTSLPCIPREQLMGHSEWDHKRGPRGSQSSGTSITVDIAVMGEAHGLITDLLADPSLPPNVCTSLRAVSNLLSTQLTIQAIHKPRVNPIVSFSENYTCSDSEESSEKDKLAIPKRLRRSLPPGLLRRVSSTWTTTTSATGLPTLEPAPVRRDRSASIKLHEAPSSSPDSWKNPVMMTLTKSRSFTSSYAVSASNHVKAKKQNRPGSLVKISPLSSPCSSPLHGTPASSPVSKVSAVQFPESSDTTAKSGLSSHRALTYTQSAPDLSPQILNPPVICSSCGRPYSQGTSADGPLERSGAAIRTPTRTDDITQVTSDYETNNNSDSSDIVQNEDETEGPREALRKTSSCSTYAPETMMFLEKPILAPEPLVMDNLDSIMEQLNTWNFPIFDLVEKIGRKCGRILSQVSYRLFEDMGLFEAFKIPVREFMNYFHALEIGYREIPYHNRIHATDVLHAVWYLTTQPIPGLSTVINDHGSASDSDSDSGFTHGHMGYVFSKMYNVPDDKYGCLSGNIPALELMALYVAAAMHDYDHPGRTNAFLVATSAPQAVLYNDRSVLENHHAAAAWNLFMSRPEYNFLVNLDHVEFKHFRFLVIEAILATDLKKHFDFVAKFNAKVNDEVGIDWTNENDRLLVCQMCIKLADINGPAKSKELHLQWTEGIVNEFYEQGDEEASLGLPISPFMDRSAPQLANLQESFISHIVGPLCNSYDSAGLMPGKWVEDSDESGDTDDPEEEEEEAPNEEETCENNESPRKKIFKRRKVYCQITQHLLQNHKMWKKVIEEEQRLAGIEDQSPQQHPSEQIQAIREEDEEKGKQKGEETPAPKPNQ
Experimental: as §1
as §2, with “Enzymatic incubations were carried out under conditions allowing no more than 15% hydrolysis of the substrate; each point was performed in duplicate.” left out
as §3, §4

mice = experiment: Swim test; assay type: in vivo, Wistar rats or Swiss mice; conditions: 3 and 30 mg/kg, 20 minutes before the test, versus control group and 0.3 mg/kg group
Experimental: This test is based on the induction of alternative behavior in rodents subjected to an acute stress. In this model, the rat or mouse placed in a water-filled cylinder adopts a particular state of immobility. Onset of said immobility is delayed by antidepressants administered acutely or in repeated doses.
Wistar rats or Swiss mice were used. Animals were isolated for one week with a reverse light/dark cycle, then placed in the water-filled cylinder for 6 minutes. The total immobility time was recorded during the last 4 minutes. The treatment was administered 20 minutes before the test. Four groups were used to test three different doses: one control group treated with the vehicle, and one group for the three doses.
N=10; *** p<0.005 (Dunnett test).

PDE5 = target: T2, PDE5 (Bos taurus, UniProt Q28156); experiment: Selectivity: inhibition of PDE5, radioenzymatic phosphodiesterase assay; assay type: biochemical, bovine; conditions: 10 μM test compound; vascular smooth muscle; read-out: PDE5 percentage inhibition at 10 μM
T2 construct: localize the different enzymes PDE1, PDE3, PDE4 and PDE5 which were aliquoted and frozen; from tissue; host or cells: bovine aortic media (vascular smooth muscle)
Experimental: as §1, §2, §3, §4

COc1cc2c(cc1OC)N(C)C(=O)CN=C2c1cccc(C(N)=O)c1 [Compound 5a, 3-(7,8-dimethoxy-1-methyl-2-oxo-2,3-dihydro-1H-1,4-benzodiazepin-5-yl)-benzamide]
PDE4 percentage inhibition at 10 μM (PDE4): 16.2%
inhibition at 10 µM (PDE3): 5%
total immobility time (mice): shorter immobility time
inhibition at 10 µM (PDE5): 17.6%

— patent US20060128695A1, “Cyclic nucleotide phosphodiesterase inhibitors, preparation and uses” (NEURO3D, priority 2002, published 2006)
